Laboratory results published in patent US20250304644A1, “PEPTIDES TRIPLE AGONISTS OF GIP, GLP-1 AND GLP-2” (BAINAN BIOTECH APS, priority 2021, published 2025).
*1 amine or outer side, *2 acyl side, *3 side chain or, on linkers, in order; H or OH if unused. Where a SMILES comes first, the peptide text is derived from it. Side-chain parts run from the residue outwards. The star is where a group is joined. C18 diacid = O=C(O)CCCCCCCCCCCCCCCCC(=O)*; γGlu = O=C(O)[C@H](CCC(=O)[*:2])N[*:1]

Experiments:
Assay type in all cases: cell-based
[1] = target: T1, human GLP-1R (Homo sapiens, UniProt P43220); assay: cAMP assay (HitHunter) in transiently transfected COS-7 cells expressing human GLP-1R; conditions: for Emax: COS-7, normalized to highest concentration of the endogenous ligand, read-out: Efficacy GLP-1R (Emax); for EC50: cAMP, COS-7 cells, human GLP-1R, read-out: EC50 (nM) GLP-1R
T1 construct: host or cells: COS-7

[2] = target: T2, human GLP-2R (Homo sapiens, UniProt O95838); assay: cAMP assay (HitHunter) in transiently transfected COS-7 cells expressing human GLP-2R; conditions: for Emax: COS-7, normalized to highest concentration of the endogenous ligand, read-out: Efficacy GLP-2R (Emax)
T2 construct: host or cells: COS-7
T2 sequence (O95838 1-553): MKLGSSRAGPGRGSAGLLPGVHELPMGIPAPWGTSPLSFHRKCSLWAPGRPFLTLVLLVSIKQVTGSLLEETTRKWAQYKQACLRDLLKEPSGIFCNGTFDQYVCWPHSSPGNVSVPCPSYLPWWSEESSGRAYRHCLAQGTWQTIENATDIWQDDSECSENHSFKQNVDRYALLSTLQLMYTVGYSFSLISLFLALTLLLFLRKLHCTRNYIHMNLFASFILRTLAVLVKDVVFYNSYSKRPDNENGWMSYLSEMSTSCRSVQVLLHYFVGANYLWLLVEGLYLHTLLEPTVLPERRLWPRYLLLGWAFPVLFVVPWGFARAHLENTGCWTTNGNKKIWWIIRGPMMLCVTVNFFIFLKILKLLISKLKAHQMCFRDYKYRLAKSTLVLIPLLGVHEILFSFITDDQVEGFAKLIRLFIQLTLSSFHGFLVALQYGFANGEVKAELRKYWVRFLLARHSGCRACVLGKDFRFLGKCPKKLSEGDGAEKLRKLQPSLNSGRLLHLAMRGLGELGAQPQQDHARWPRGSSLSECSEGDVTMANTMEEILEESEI
Procedure: The next day the assay was initiated by washing with HEPES buffered saline (HBS) and followed by an incubation step with assay buffer (HBS added 1 mM isobutyl-1-methylxanthine (IBMX)) for 30 min at 37° C. The ligands were then added and incubated for an additional 30 min at 37° C. After ligand incubation, the HitHunter® CAMP assay (Eurofins DiscoverX, Fremont, […] USA) was carried out according to the manufacturer's instructions. […] The potencies (EC50 values) were determined by nonlinear regression using GraphPad Prism 9 (San Diego, California, USA). Sigmoid curves were fitted logistically. The efficacies (Emax values) were determined by normalization to the highest concentration applied of the endogenous ligand for each receptor.

[3] = target: T3, human GIPR (Homo sapiens, UniProt P48546); assay: cAMP assay (HitHunter) in transiently transfected COS-7 cells expressing human GIPR; conditions: for Emax: COS-7, normalized to highest concentration of the endogenous ligand, read-out: Efficacy GIPR (Emax)
T3 construct: host or cells: COS-7
T3 sequence (P48546 22-466): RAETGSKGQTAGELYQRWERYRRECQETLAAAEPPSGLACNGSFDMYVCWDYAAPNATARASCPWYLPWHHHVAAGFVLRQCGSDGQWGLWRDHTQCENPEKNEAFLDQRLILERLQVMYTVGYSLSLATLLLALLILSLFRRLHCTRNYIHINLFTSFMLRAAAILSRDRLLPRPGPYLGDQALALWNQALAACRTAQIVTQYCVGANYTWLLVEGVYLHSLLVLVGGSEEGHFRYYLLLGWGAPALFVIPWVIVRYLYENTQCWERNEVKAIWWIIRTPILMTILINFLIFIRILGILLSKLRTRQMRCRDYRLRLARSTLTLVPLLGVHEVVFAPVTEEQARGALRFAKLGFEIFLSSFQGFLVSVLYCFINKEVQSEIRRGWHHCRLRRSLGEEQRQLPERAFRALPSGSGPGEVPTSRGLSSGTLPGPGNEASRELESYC

[4] = target: T4, human SNAP-tagged GIPR (Homo sapiens, UniProt P48546); assay: Receptor internalization assay, HEK293A cells expressing human SNAP-tagged GIPR; conditions: for Absolute hGIPR internalization (AUC): AUC of sigmoid curves up to 1 μM, 60 minutes at 37° C.
T4 construct: host or cells: HEK293A
T4 sequence (P48546 22-466): T3 sequence (P48546 22-466)

T1 sequence (P43220 24-463): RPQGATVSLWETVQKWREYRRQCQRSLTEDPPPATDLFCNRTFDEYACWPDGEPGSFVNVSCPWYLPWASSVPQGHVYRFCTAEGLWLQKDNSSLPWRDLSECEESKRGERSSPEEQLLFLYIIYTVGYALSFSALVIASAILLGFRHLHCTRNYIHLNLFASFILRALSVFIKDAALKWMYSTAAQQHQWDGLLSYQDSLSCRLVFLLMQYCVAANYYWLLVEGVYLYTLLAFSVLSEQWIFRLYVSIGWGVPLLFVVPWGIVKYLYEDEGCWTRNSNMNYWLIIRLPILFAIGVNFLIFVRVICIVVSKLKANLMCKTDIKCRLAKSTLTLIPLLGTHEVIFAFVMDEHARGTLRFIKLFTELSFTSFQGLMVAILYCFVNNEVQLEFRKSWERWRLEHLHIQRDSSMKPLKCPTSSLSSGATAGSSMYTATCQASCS

| Emax [1] | Emax [2] | EC50 ([2]; cAMP, COS-7 cells, human GLP-2R, read-out: EC50 (nM) GLP-2R) | Emax [3] | Absolute hGIPR internalization (AUC) [4] | EC50 [1] | GLP-2R activation (in words) ([2]; cAMP, fatty acid at C-terminus of 1-33 or 1-34 backbone) | EC50 ([3]; cAMP, COS-7 cells, human GIPR) | Relative hGIPR internalization (%) ([4]; relative to hGIP 1-42 = 100) | Compound |
| --- | --- | --- | --- | --- | --- | --- | --- | --- | --- |
| 101% | 96% | 2 nM | 93% | 5.3 |  |  |  |  | CCCCCCCCCC(=O)NCCCC[C@H](NC(=O)[C@@H](NC(=O)[C@@H](NC(=O)[C@H](CCCCN)NC(=O)[C@@H](NC(=O)[C@H](CCC(N)=O)NC(=O)[C@@H](NC(=O)[C@H](CC(C)C)NC(=O)[C@H](Cc1c[nH]c2ccccc12)NC(=O)[C@H](CC(N)=O)NC(=O)[C@@H](NC(=O)[C@H](Cc1ccccc1)NC(=O)[C@H](CC(=O)O)NC(=O)[C@H](CCCNC(=N)N)NC(=O)[C@H](C)NC(=O)[C@H](C)NC(=O)[C@H](CC(C)C)NC(=O)[C@H](CC(N)=O)NC(=O)[C@H](CC(=O)O)NC(=O)[C@H](CC(C)C)NC(=O)[C@@H](NC(=O)[C@@H](NC(=O)[C@H](CO)NC(=O)[C@H](Cc1ccc(O)cc1)NC(=O)[C@H](CC(=O)O)NC(=O)[C@H](CO)NC(=O)[C@@H](NC(=O)[C@H](Cc1ccccc1)NC(=O)[C@@H](NC(=O)CNC(=O)[C@H](CC(=O)O)NC(=O)C(C)(C)NC(=O)[C@@H](N)Cc1c[nH]cn1)[C@@H](C)O)[C@@H](C)CC)[C@@H](C)O)[C@@H](C)CC)[C@@H](C)CC)[C@@H](C)CC)[C@@H](C)O)[C@@H](C)CC)[C@@H](C)O)C(N)=O [Compound 1] |
| 107% | 92% |  | 97% |  |  |  |  |  | CCCCCCCCCC(=O)N[C@@H](CCC(=O)NCCCC[C@H](NC(=O)[C@@H](NC(=O)[C@@H](NC(=O)[C@H](CCCCN)NC(=O)[C@@H](NC(=O)[C@H](CCC(N)=O)NC(=O)[C@@H](NC(=O)[C@H](CC(C)C)NC(=O)[C@H](Cc1c[nH]c2ccccc12)NC(=O)[C@H](CC(N)=O)NC(=O)[C@@H](NC(=O)[C@H](Cc1ccccc1)NC(=O)[C@H](CC(=O)O)NC(=O)[C@H](CCCNC(=N)N)NC(=O)[C@H](C)NC(=O)[C@H](C)NC(=O)[C@H](CC(C)C)NC(=O)[C@H](CC(N)=O)NC(=O)[C@H](CC(=O)O)NC(=O)[C@H](CC(C)C)NC(=O)[C@@H](NC(=O)[C@@H](NC(=O)[C@H](CO)NC(=O)[C@H](Cc1ccc(O)cc1)NC(=O)[C@H](CC(=O)O)NC(=O)[C@H](CO)NC(=O)[C@@H](NC(=O)[C@H](Cc1ccccc1)NC(=O)[C@@H](NC(=O)CNC(=O)[C@H](CC(=O)O)NC(=O)C(C)(C)NC(=O)[C@@H](N)Cc1c[nH]cn1)[C@@H](C)O)[C@@H](C)CC)[C@@H](C)O)[C@@H](C)CC)[C@@H](C)CC)[C@@H](C)CC)[C@@H](C)O)[C@@H](C)CC)[C@@H](C)O)C(N)=O)C(=O)O [Compound 17] |
| 112% | 91% |  | 82% | 2.1 | 0.06 nM |  |  |  | CC[C@H](C)[C@H](NC(=O)[C@H](Cc1ccccc1)NC(=O)[C@H](CC(=O)O)NC(=O)[C@H](CCCCNC(=O)COCCOCCNC(=O)COCCOCCNC(=O)CC[C@H](NC(=O)CCCCCCCCCCCCCCCCC(=O)O)C(=O)O)NC(=O)[C@H](C)NC(=O)[C@H](C)NC(=O)[C@H](CC(C)C)NC(=O)[C@H](CC(N)=O)NC(=O)[C@H](CC(=O)O)NC(=O)[C@H](CC(C)C)NC(=O)[C@@H](NC(=O)[C@@H](NC(=O)[C@H](CO)NC(=O)[C@H](Cc1ccc(O)cc1)NC(=O)[C@H](CC(=O)O)NC(=O)[C@H](CO)NC(=O)[C@@H](NC(=O)[C@H](Cc1ccccc1)NC(=O)[C@@H](NC(=O)CNC(=O)[C@H](CC(=O)O)NC(=O)[C@H](C)NC(=O)[C@@H](N)Cc1c[nH]cn1)[C@@H](C)O)[C@@H](C)O)[C@@H](C)O)[C@@H](C)CC)C(=O)N[C@@H](CC(N)=O)C(=O)N[C@@H](Cc1c[nH]c2ccccc12)C(=O)N[C@@H](CC(C)C)C(=O)N[C@H](C(=O)N[C@@H](CCC(N)=O)C(=O)N[C@H](C(=O)N[C@@H](CCCCN)C(=O)NCC(=O)N[C@@H](CCCCN)C(=O)N[C@@H](CCCCN)C(=O)O)[C@@H](C)O)[C@@H](C)CC [Compound 18] |
| 106% | 94% |  | 92% | 8.9 | 0.06 nM | reduction in GLP-2R activation | 0.631 nM | 24% | CC[C@H](C)[C@H](NC(=O)[C@H](Cc1ccccc1)NC(=O)[C@H](CC(=O)O)NC(=O)[C@H](CCCNC(=N)N)NC(=O)[C@H](C)NC(=O)[C@H](C)NC(=O)[C@H](CC(C)C)NC(=O)[C@H](CC(N)=O)NC(=O)[C@H](CC(=O)O)NC(=O)[C@H](CC(C)C)NC(=O)[C@@H](NC(=O)[C@@H](NC(=O)[C@H](CO)NC(=O)[C@H](Cc1ccc(O)cc1)NC(=O)[C@H](CC(=O)O)NC(=O)[C@H](CO)NC(=O)[C@@H](NC(=O)[C@H](Cc1ccccc1)NC(=O)[C@@H](NC(=O)CNC(=O)[C@H](CC(=O)O)NC(=O)[C@H](C)NC(=O)[C@@H](N)Cc1c[nH]cn1)[C@@H](C)O)[C@@H](C)O)[C@@H](C)O)[C@@H](C)CC)C(=O)N[C@@H](CC(N)=O)C(=O)N[C@@H](Cc1c[nH]c2ccccc12)C(=O)N[C@@H](CC(C)C)C(=O)N[C@H](C(=O)N[C@@H](CCC(N)=O)C(=O)N[C@H](C(=O)N[C@@H](CCCCN)C(=O)NCC(=O)N[C@@H](CCCCN)C(=O)N[C@@H](CCCCNC(=O)CC[C@H](NC(=O)CCCCCCCCCCCCCCCCC(=O)O)C(=O)O)C(=O)O)[C@@H](C)O)[C@@H](C)CC [Compound 19] (H-HADGTFTSDYSTILDNLAARDFINWLIQTKGKK([γGlu-C18 diacid])-OH; N-terminus assumed) |
